For one test, the system named is OPM-2. Description: Assay 2: multiple myeloma cellular efficacy, PrestoBlue cell proliferation/survival. Particulars: Homo sapiens, 96 h, OPM-2 cells, 4 days. Type of test: cell-based. The protocol:
Multiple Myeloma Cellular Efficacy:
10000 OPM-2 (ACC50; DSMZ) were plated into wells of a 384 well plate (Greiner 781090). Cells were treated for 4 days with a dose range of compound or vehicle. At the end of the experiment cells were stained directly with PrestoBlue (ThermoFisher Scietific; A13262) for 2 hours at 37° C. in a humidified incubator according to manufactor's instruction. To assess the relative cell number the PrestoBlue signal was measured using either a TecanM1000Pro reader or a Tecan Sparks reader following the manufactor's instructions. Background (no cells) values were subtracted and set in relation to the vehicle control. To assess the EC50 of each compound the relative fluorescence value was plotted against the compound concentration after log transformation. Data were fitted in a nonlinear manner with a variable slope (four parameters) using graphpad prism software. Cellular efficacy of compounds was evaluated in the multiple myeloma cell line OPM-2 using the cell proliferation/survival assay PrestoBlue. EC50 values are classified as indicated below.

The test system of a further test is A375 cells. Description: Assay 1: A375 cells treated with S1152, S1008 and compound, immunofluorescence (sc-365823) signal. Particulars: 1 μM S1152 + 0.5 μM S1008, one day. Format: cell-based. The procedure, abridged:
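A375 cells treated one day with 1 μM S1152, 0.5 μM S1008 and compound dose ranges in DMEM/10% FCS, then fixed, permeabilised and immunostained. Green signal normalised to nuclear counterstain (ethidium-type or DAPI), log ratio fitted by four-parameter regression for EC50.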

Each structure is given as a SMILES string.

Consider `CC(=O)N1C[C@H](c2nc(Nc3cccc(-c4cn(C)nn4)c3)cc(-c3cnccn3)n2)CC[C@@H]1C` [Compound 00068, 1-((2S,5R)-2-methyl-5-(4-((3-(1-methyl-1H-1,2,3-triazol-4-yl)phenyl)amino)-6-(pyrazin-2-yl)pyrimidin-2-yl)piperidin-1-yl)ethan-1-one], for which the EC50 in the test with OPM-2 and in the test on A375 cells was less than 200 nM throughout.
In the case of `CC(=O)N1C[C@H](c2nc(Nc3cccc(-n4cnnn4)c3)cc(-c3cccnc3)n2)CC[C@@H]1C` [Compound 00063, 1-((2S,5R)-5-(4-((3-(1H-tetrazol-1-yl)phenyl)amino)-6-(pyridin-3-yl)pyrimidin-2-yl)-2-methylpiperidin-1-yl)ethan-1-one], the EC50 – broadly, the concentration that produces a half-maximal response – in the test with OPM-2 was 200 to 1000 nM; with A375 cells, less than 200 nM.
Taken in the same sequence, the figures for `CC(=O)N1C[C@H](c2nc(Nc3cncc(C(F)(F)F)c3)cc(-c3cccnc3)n2)CC[C@@H]1C` [Compound 00124, 1-((2S,5R)-2-methyl-5-(4-(pyridin-3-yl)-6-((5-(trifluoromethyl)pyridin-3-yl)amino)pyrimidin-2-yl)piperidin 1-yl)ethan-1-one] were 200 to 1000 nM and less than 200 nM.
Taken in the same sequence, the figures for `CC(=O)N1C[C@H](c2nc(Nc3cccc(C(C)(F)F)c3)cc(-c3cccnc3)n2)CC[C@@H]1C` [Compound 00058, 1-((2S,5R)-5-(4-((3-(1,1-difluoroethyl)phenyl)amino)-6-(pyridin-3-yl)pyrimidin-2-yl)-2-methylpiperidin-1-yl)ethan-1-one] were 200 to 1000 nM and less than 200 nM.
Taken in the same sequence, the figures for `CC(=O)N1C[C@H](c2nc(Nc3cccc4c3cnn4C)cc(-c3cccnc3)n2)CC[C@@H]1C` [Compound 00056, 1-((2S,5R)-2-methyl-5-(4-((1-methyl-1H-indazol-4-yl)amino)-6-(pyridin-3-yl)pyrimidin-2-yl)piperidin-1-yl)ethan-1-one] were less than 200 nM and less than 200 nM.
Consider `CC(=O)N1C[C@H](c2nc(Nc3cncc(C(F)F)c3)cc(-c3cccnc3)n2)CC[C@@H]1C` [Compound 00107, 1-((2S,5R)-5-(4-((5-(difluoromethyl)pyridin-3-yl)amino)-6-(pyridin-3-yl)pyrimidin-2-yl)-2-methylpiperidin-1-yl)ethan-1-one], for which the EC50 in the test on OPM-2 and with A375 cells was 200 to 1000 nM each time.
As to `CCn1cc(-c2cc(Nc3cc(-c4cccnc4)nc([C@@H]4CC[C@H](C)N(C(C)=O)C4)n3)ccn2)cn1` [Compound 00158, 1-((2S-5R)-5-(4-((2-(1-ethyl-1H-pyrazol-4-yl)pyridin-4-yl)amino)-6-(pyridin-3-yl)pyrimidin-2-yl)-2-methylpiperidin-1-yl)ethan-1-one], the concentration for a half-maximal effect (EC50) in the test with OPM-2 and in the test on A375 cells was less than 200 nM in each case.
Regarding `CC(=O)N1C[C@H](c2nc(Nc3cc(C)nc(F)c3)cc(-c3cccnc3)n2)CC[C@@H]1C` [Compound 00134, 1-((2S,5R)-5-(4-((2-fluoro-6-methylpyridin-4-yl)amino)-6-(pyridin-3-yl)pyrimidin-2-yl)-2-methylpiperidin-1-yl)ethan1-one], the EC50 with OPM-2 and in the test on A375 cells was less than 200 nM in each case.
With `CC(=O)N1C[C@H](c2nc(Nc3cccc(N4CCOC4=O)c3)cc(-c3cccnc3)n2)CC[C@@H]1C` [Compound 00088, 3-(3-((2-((3R,6S)-1-acetyl-6-methylpiperidin-3-yl)-6-(pyridin-3-yl)pyrimidin-4-yl)amino)phenyl)oxazolidin-2-one], the concentration giving a half-maximal response (EC50) in the test on OPM-2 was 200 to 1000 nM; in the test on A375 cells it was less than 200 nM.
With `CC(=O)N1C[C@H](c2nc(Nc3ccnc(-c4cnn(C5CCOCC5)c4)c3)cc(-c3cccnc3)n2)CC[C@@H]1C` [Compound 00159, 1-((2S-5R)-2-methyl-5-(4-(pyridin-3-yl)-6-((2-(1-(tetrahydro-2H-pyran-4-yl)-1H-pyrazol-4-yl)pyridin-4-yl)amino)pyrimidin-2-yl)piperidin-1-yl)ethan-1-one], the EC50 in the test with OPM-2 and in the test on A375 cells was less than 200 nM throughout.
Take `COCCOc1cncc(-c2cc(Nc3cc(F)cc(-c4cnn(C)c4)c3)nc([C@@H]3CC[C@H](C)N(C(C)=O)C3)n2)c1` [Compound 00091, 1-((2S,5R)-5-(4-((3-fluoro-5-(1-methyl-1H-pyrazol-4-yl)phenyl)amino)-6-(5-(2-methoxyethoxy)pyridin-3-yl)pyrimidin-2-yl)-2-methylpiperidin-1-yl)ethan-1-one]: the EC50 in the test with OPM-2 and with A375 cells was less than 200 nM each time.
Turning to `CC(=O)N1C[C@H](c2nc(Nc3ccnc(C)c3)cc(-c3cncc(N4CC(C(=O)N(C)C)C4)c3)n2)CC[C@@H]1C` [Compound 00113, 1-(5-(2-((3R,6S)-1-acetyl-6-methylpiperidin-3-yl)-6-((2-methylpyridin-4-yl)amino)pyrimidin-4-yl)pyridin-3-yl)-N,N-dimethylazetidine-3-carboxamide], the EC50 with OPM-2 and in the test with A375 cells was 1000 to 10000 nM throughout.
In the case of `CC(=O)N1C[C@H](c2nc(Nc3cccc4c3CC(=O)N4)cc(-c3cccnc3)n2)CC[C@@H]1C` [Compound 00051, 4-((2-((3R,6S)-1-acetyl-6-methylpiperidin-3-yl)-6-(pyridin-3-yl)pyrimidin-4-yl)amino)indolin-2-], the half-maximal effective concentration (EC50) is 1000 to 10000 nM with OPM-2 and 200 to 1000 nM in the test on A375 cells.
The like results for `COc1cc(F)cc(Nc2cc(-c3cnccn3)nc([C@@H]3CC[C@H](C)N(C(C)=O)C3)n2)c1` [Compound 00067, 1-((2S,5R)-5-(4-((3-fluoro-5-methoxyphenyl)amino)-6-(pyrazin-2-yl)pyrimidin-2-yl)-2-methylpiperidin-1-yl)ethan-1-one] were, in that order, less than 200 nM and less than 200 nM.
With `CC(=O)N1C[C@H](c2nc(Nc3ccnc(C)c3)cc(-c3cncc4c3cnn4C)n2)CC[C@@H]1C` [Compound 00112, 1-((2S,5R)-2-methyl-5-(4-(1-methyl-1/7-pyrazolo[3,4-c]pyridin-4-yl)-6-((2-methylpyridin-4-yl)amino)pyrimidin-2-yl)piperidin-1-yl)ethan-1-one], the concentration for a half-maximal effect (EC50) in the test with OPM-2 and with A375 cells was less than 200 nM in each case.
Take `CC(=O)Nc1cccc(Nc2cc(-c3cccnc3)nc([C@@H]3CC[C@H](C)N(C(C)=O)C3)n2)n1` [Compound 00148, N-(6-((2-((3R,6S)-1-acetyl-6-methylpiperidin-3-yl)-6-(pyridin-3-yl)pyrimidin-4-yl)amino)pyridin-2-yl)acetamide]: the EC50 in the test on OPM-2 and in the test with A375 cells was less than 200 nM throughout.
`CC(=O)N1C[C@H](c2nc(Nc3cc(C)nc(C(F)F)c3)cc(-c3cnccn3)n2)CC[C@@H]1C` [Compound 00145, 1-((2S,5R)-5-(4-((2-(difluoromethyl)-6-methylpyridin-4-yl)amino)-6-(pyrazin-2-yl)pyrimidin-2-yl)-2-methylpiperidin-1-yl)ethan-1-one]: the EC50 in the test with OPM-2 and in the test with A375 cells was less than 200 nM in each case.
For `CC(=O)N1C[C@H](c2nc(Nc3cncc(C)c3)cc(-c3cccnc3)n2)CC[C@@H]1C` (racemic) [Compound 00096, (+/−)-cis-1-(2-methyl-5-(4-((5-methylpyridin-3-yl)amino)-6-(pyridin-3-yl)pyrimidin-2-yl)piperidin-1-yl)ethan-1-one], the EC50 in the test with OPM-2 was 200 to 1000 nM; in the test with A375 cells, less than 200 nM.
Taken in the same sequence, the figures for `CC(=O)N1C[C@H](c2nc(Nc3cccc(-c4nnco4)c3)cc(-c3cccnc3)n2)CC[C@@H]1C` [Compound 00141, 1-((2S,5R)-5-(4-((3-(1,3,4-oxadiazol-2-yl)phenyl)amino)-6-(pyridin-3-yl)pyrimidin-2-yl)-2-methylpiperidin-1-yl)ethan-1-one] were less than 200 nM and less than 200 nM.
The like results for `CC(=O)N1C[C@H](c2nc(Nc3cccc(-c4noc(C)n4)c3)cc(-c3cnccn3)n2)CC[C@@H]1C` [Compound 00064, 1-((2S,5R)-2-methyl-5-(4-((3-(5-methyl-1,2,4-oxadiazol-3-yl)phenyl)amino)-6-(pyrazin-2-yl)pyrimidin-2-yl)piperidin-1-yl)ethan-1-one] were, in that order, less than 200 nM and less than 200 nM.
Taken in the same sequence, the figures for `CC(=O)N1C[C@H](c2nc(Nc3cc(F)ccn3)cc(-c3cnccn3)n2)CC[C@@H]1C` [Compound 00156, 1-((2S,5R)-5-(4-((4-fluoropyridin-2-yl)amino)-6-(pyrazin2-yl)pyrimidin-2-yl)-2-methylpiperidin-1-yl)ethan-1-one] were 200 to 1000 nM and 200 to 1000 nM.
`CC(=O)N1C[C@H](c2nc(Nc3ccnc(-c4cnn(C)c4)c3)cc(-c3cccnc3)n2)CC[C@@H]1C` [Compound 00143, 1-((2S,5R)-2-methyl-5-(4-((2-(1-methyl-1H-pyrazol-4-yl)pyridin-4-yl)amino)-6-(pyridin-3-yl)pyrimidin-2-yl)piperidin-1-yl)ethan-1-one]: the EC50 in the test on OPM-2 and in the test with A375 cells was less than 200 nM throughout.
On to `CC(=O)N1C[C@H](c2nc(Nc3ccnc(C(C)(F)F)c3)cc(-c3cccnc3)n2)CC[C@@H]1C` [Compound 00146, 1-((2S,5R)-5-(4-((2-(1,1-difluoroethyl)pyridin-4-yl)amino)-6-(pyridin-3-yl)pyrimidin-2-yl)-2-methylpiperidin-1-yl)ethan-1-one], for which the results for the EC50 in the test on OPM-2 and in the test with A375 cells were 200 to 1000 nM and less than 200 nM, respectively.

These data come from patent US12478624B2, “Heterocyclic derivatives, pharmaceutical compositions and their use in the treatment or amelioration of cancer” (Tolremo Therapeutics AG, priority 2019, dated 2025).
